Structures can show the parent of a compound that is named as a salt.
System: MMP-13
Assay: MMP-13 production inhibition test
Format: cell-based
Conditions: 30 μmol/L; human cartilage derived cell line SW1353, IL-1β 10 ng/mL, 16 hours after stimulation, MMP-13 in culture supernatant by ELISA; read-out: Inhibition rate (%) at 30 μmol/L
Description: MMP-13 Production Inhibition Test
6.8×10^3 human cartilage derived cell line SW1353 cells were suspended in 100 μL of Dulbecco modified Eagle's medium supplemented with 10% fetal calf serum, plated on 96-well plates and cultured for 3 days. After the culture medium was changed to Dulbecco modified Eagle's medium containing 0.2% lactalbumin hydrolysate and the cells were cultured for 6 hours, test compounds were added and then IL-1β was added to obtain the final concentration of 10 ng/mL 1 hour later. 16 hours after the stimulation, supernatant was collected and the amount of MMP-13 in the culture supernatant was determined with an ELISA kit (Amersham). The inhibition rate was calculated from the amount of MMP-13 in the presence of a test compound assuming that the amount of MMP-13 was 100% in the absence of the test compound.

COc1ccccc1-c1ccc(C(=O)O)c(Nc2ccc(F)cc2)c1 [Example 3, 2-(4-fluoroanilino)-4-(2-methoxyphenyl)benzoic acid]
inhibition at 30 µM: 53%

O=C(O)c1ccc(-c2ccc3c(c2)OCO3)cc1Nc1ccc(F)cc1 [Example 7, 4-(Benzo-1,3-dioxol-5-yl)-2-(4-fluoroanilino)benzoic acid]
inhibition at 30 µM: 95%

COc1ccc(-c2ccc(C(=O)O)c(Nc3ccc(F)cc3)c2)cc1 [Example 9, 2-(4-fluoroanilino)-4-(4-methoxyphenyl)benzoic acid]
inhibition at 30 µM: 93%

CS(=O)(=O)c1ccc(-c2ccc(C(=O)O)c(Nc3ccc(F)cc3)c2)cc1 [Example 11, 2-(4-fluoroanilino)-4-(4-(methanesulfonyl)phenyl)benzoic acid]
inhibition at 30 µM: 62%

CS(=O)(=O)Nc1ccc(-c2ccc(C(=O)O)c(Nc3ccc(F)cc3)c2)cc1 [Example 12, 2-(4-Fluoroanilino)-4-(4-(methanesulfonamido)phenyl)benzoic acid]
inhibition at 30 µM: 75%

O=C(O)c1ccc(-c2ccc3[nH]ccc3c2)cc1Nc1ccc(F)cc1 [Example 13, 2-(4-Fluoroanilino)-4-(1H-indol-5-yl)benzoic acid]
inhibition at 30 µM: 95%

CC(=O)c1ccc(-c2ccc(C(=O)O)c(Nc3ccc(F)cc3)c2)cc1 [Example 15, 4-(4-Acetylphenyl)-2-(4-fluoroanilino)benzoic acid]
inhibition at 30 µM: 91%

O=C(O)c1ccc(-c2ccccc2)cc1Nc1ccc(F)cc1 [Example 37, 2-(4-fluoroanilino)-4-phenylbenzoic acid]
inhibition at 30 µM: 92%

O=C(O)c1ccc(Oc2ccccc2)cc1Nc1ccc2c(c1)OCO2 [Example 43, 2-((Benzo-1,3-dioxol-5-yl)amino)-4-phenoxybenzoic acid]
inhibition at 30 µM: 93%

COc1ccc(Nc2cc(Oc3ccccc3)ccc2C(=O)O)c(OC)c1 [Example 45, 2-(2,4-Dimethoxyanilino)-4-phenoxybenzoic acid]
inhibition at 30 µM: 73%

O=C(O)c1ccc(Oc2ccccc2)cc1Nc1ccccc1 [Example 46, 2-Anilino-4-phenoxybenzoic acid]
inhibition at 30 µM: 93%

O=C(O)c1ccc(Oc2ccccc2)cc1NC1CCCCC1 [Example 48, 2-(cyclohexylamino)-4-phenoxybenzoic acid]
inhibition at 30 µM: 85%

O=C(O)c1ccc(Oc2ccccc2)cc1NCc1ccc(F)cc1 [Example 49, 2-(4-Fluorobenzylamino)-4-phenoxybenzoic acid]
inhibition at 30 µM: 85%

O=C(O)c1ccc(Oc2ccccc2)cc1NCc1ccccc1 [Example 52, 2-(benzylamino)-4-phenoxybenzoic acid]
inhibition at 30 µM: 77%

O=C(O)c1ccc(Nc2ccccc2)cc1Nc1ccc(F)cc1 [Example 63, 4-anilino-2-(4-fluoroanilino)benzoic acid]
inhibition at 30 µM: 67%

O=C(O)c1ccc(NCc2ccccc2)cc1Nc1ccc(F)cc1 [Example 67, 4-(benzylamino)-2-(4-fluoroanilino)benzoic acid]
inhibition at 30 µM: 67%

O=C(O)c1ccc(NCCCc2ccccc2)cc1Nc1ccc(F)cc1 [Example 69, 2-(4-Fluoroanilino)-4-((3-phenylpropyl)amino)benzoic acid]
inhibition at 30 µM: 94%

O=C(O)c1ccc(CCCc2ccccc2)cc1Nc1ccc(F)cc1 [Example 81, 2-(4-fluoroanilino)-4-(3-phenylpropyl)benzoic acid]
inhibition at 30 µM: 97%

O=C(O)c1ccc(NC(=O)c2csc3ccccc23)cc1Nc1ccc(F)cc1 [Example 87, 4-(benzothiophene-3-carboxamido)-2-(4-fluoroanilino)benzoic acid]
inhibition at 30 µM: 97%

O=C(O)c1ccc(NS(=O)(=O)c2ccccc2)cc1Nc1ccc(F)cc1 [Example 91, 4-(Benzenesulfonamido)-2-(4-fluoroanilino)benzoic acid]
inhibition at 30 µM: 53%

O=C(O)c1ccc(/C=C/c2cccc(O)c2)cc1Nc1ccc(F)cc1 [Example 126, 2-(4-fluoroanilino)-4-((E)-2-(3-hydroxyphenyl)vinyl)benzoic acid]
inhibition at 30 µM: 94%

O=C(O)c1ccc(/C=C/c2ccc(F)cc2)cc1Nc1ccc(F)cc1 [Example 132, 2-(4-Fluoroanilino)-4-((E)-2-(4-fluorophenyl)vinyl)benzoic acid]
inhibition at 30 µM: 95%

O=C(O)c1ccc(/C=C/c2ccc3c(c2)OCO3)cc1Nc1ccc(F)cc1 [Example 140, 4-((E)-2-(Benzo-1,3-dioxol-5-yl)vinyl)-2-(4-fluoroanilino)benzoic acid]
inhibition at 30 µM: 93%

COc1ccc(CCc2ccc(C(=O)O)c(Nc3ccc(F)cc3)c2)cc1 [Example 160, 2-(4-Fluoroanilino)-4-(2-(4-methoxyphenyl)ethyl)benzoic acid]
inhibition at 30 µM: 93%

COc1cccc(CCc2ccc(C(=O)O)c(Nc3ccc(F)cc3)c2)c1 [Example 166, 2-(4-Fluoroanilino)-4-(2-(3-methoxyphenyl)ethyl)benzoic acid]
inhibition at 30 µM: 92%

O=C(O)c1ccc(CCc2ccccc2)cc1Nc1ccccc1C(F)(F)F [Example 169, 4-phenethyl-2-(2-(trifluoromethyl)anilino)benzoic acid]
inhibition at 30 µM: 97%

O=C(O)c1ccc(CCc2ccccc2)cc1Nc1ccc(C(F)(F)F)cc1 [Example 170, 4-Phenethyl-2-(4-(trifluoromethyl)anilino)benzoic acid]
inhibition at 30 µM: 97%

Cc1ccc(Nc2cc(CCc3ccccc3)ccc2C(=O)O)c(C)c1 [Example 172, 2-(2,4-Dimethylanilino)-4-phenethylbenzoic acid]
inhibition at 30 µM: 97%

Cc1cccc(Nc2cc(CCc3ccccc3)ccc2C(=O)O)c1C [Example 173, 2-(2,3-Dimethylanilino)-4-phenethylbenzoic acid]
inhibition at 30 µM: 97%

COc1ccccc1Nc1cc(CCc2ccccc2)ccc1C(=O)O [Example 181, 2-(2-Methoxyanilino)-4-phenethylbenzoic acid]
inhibition at 30 µM: 97%

COc1ccc(Nc2cc(-c3ccccc3)ccc2C(=O)O)cc1 [Example 185, 2-(4-methoxyanilino)-4-phenylbenzoic acid]
inhibition at 30 µM: 79%

O=C(O)c1ccc(-c2ccccc2)cc1Nc1ccc(OC(F)(F)F)cc1 [Example 190, 4-Phenyl-2-(4-(trifluoromethoxy)anilino)benzoic acid]
inhibition at 30 µM: 97%

O=C(O)c1ccc(-c2ccccc2)cc1Nc1cccc(OC(F)(F)F)c1 [Example 191, 4-Phenyl-2-(3-(trifluoromethoxy)anilino)benzoic acid]
inhibition at 30 µM: 97%

O=C(O)c1ccc(CCc2ccccc2)cc1Nc1ccccc1OC(F)(F)F [Example 199, 4-Phenethyl-2-(2-(trifluoromethoxy)anilino)benzoic acid]
inhibition at 30 µM: 97%

O=C(O)c1ccc(CCc2ccccc2)cc1Nc1cccc(Cl)c1 [Example 200, 2-(3-chloroanilino)-4-phenethylbenzoic acid]
inhibition at 30 µM: 97%

COc1ccc(-c2ccc(C(=O)O)c(Nc3ccc(F)cc3)c2)cc1OC [Example 209, 4-(3,4-Dimethoxyphenyl)-2-(4-fluoroanilino)benzoic acid]
inhibition at 30 µM: 82%

Cc1ccc(-c2ccc(C(=O)O)c(Nc3ccc(F)cc3)c2)cc1C [Example 214, 4-(3,4-Dimethylphenyl)-2-(4-fluoroanilino)benzoic acid]
inhibition at 30 µM: 98%

O=C(O)c1ccc(-c2ccccc2OC(F)(F)F)cc1Nc1ccc(F)cc1 [Example 220, 2-(4-Fluoroanilino)-4-(2-(trifluoromethoxy)phenyl)benzoic acid]
inhibition at 30 µM: 98%

O=C(O)c1ccc(-c2ccc(OC(F)(F)F)cc2)cc1Nc1ccc(F)cc1 [Example 222, 2-(4-Fluoroanilino)-4-(4-(trifluoromethoxy)phenyl)benzoic acid]
inhibition at 30 µM: 98%

O=C(O)c1ccc(-c2ccc3occc3c2)cc1Nc1ccc(F)cc1 [Example 225, 4-(Benzofuran-5-yl)-2-(4-fluoroanilino)benzoic acid]
inhibition at 30 µM: 98%

O=C(O)c1ccc(-c2cccc3[nH]ccc23)cc1Nc1ccc(F)cc1 [Example 234, 2-(4-fluoroanilino)-4-(1H-indol-4-yl)benzoic acid]
inhibition at 30 µM: 97%

O=C(O)c1ccc(N2CCc3ccccc32)cc1Nc1ccc(F)cc1 [Example 243, 2-(4-fluoroanilino)-4-(indolin-1-yl)benzoic acid]
inhibition at 30 µM: 97%

O=C(O)c1ccc(-n2cnc3ccccc32)cc1Nc1ccc(F)cc1 [Example 248, 4-(1H-benzimidazol-1-yl)-2-(4-fluoroanilino)benzoic acid trifluoroacetate]
inhibition at 30 µM: 84%

Cc1ccc(CCc2ccc(C(=O)O)c(Nc3ccc(F)cc3)c2)cc1 [Example 252, 2-(4-Fluoroanilino)-4-(2-(4-methylphenyl)ethyl)benzoic acid]
inhibition at 30 µM: 96%

O=C(O)c1ccc(CCc2ccc(OC(F)(F)F)cc2)cc1Nc1ccc(F)cc1 [Example 259, 2-(4-fluoroanilino)-4-(2-(4-(trifluoromethoxy)phenyl)ethyl)benzoic acid]
inhibition at 30 µM: 96%

CC(=O)Nc1cccc(CCc2ccc(C(=O)O)c(Nc3ccc(F)cc3)c2)c1 [Example 262, 4-(2-(3-Acetamidophenyl)ethyl)-2-(4-fluoroanilino)benzoic acid]
inhibition at 30 µM: 80%

O=C(O)c1ccc(-c2cccc(Cl)c2)cc1Nc1cccc(O)c1 [Example 271, 4-(3-chlorophenyl)-2-((3-hydroxyphenyl)amino)benzoic acid]
inhibition at 30 µM: 97%

Cc1ccccc1Nc1cc(-c2ccc(NS(C)(=O)=O)cc2)ccc1C(=O)O [Example 273, 4-(4-(methanesulfonamido)phenyl)-2-(2-methylanilino)benzoic acid]
inhibition at 30 µM: 83%

From patent US8327467B2, “Anthranilic acid derivative or salt thereof” (Toyama Chemical Co., Ltd., priority 2005, dated 2012)
